Data as given in paper PMC3115942 (PLoS ONE, 2011).
“Also recorded” adds a separate entry of the source.

Experiments:
AMPK(r) = test: Millipore kinaseprofiler diversity array; assay type: biochemical, rat; conditions: 10 µM MS-0022
Procedure: Table 4 Kinase activity in presence of 10 µM MS-0022 in a kinaseprofiler diversity array. | column: Activity %

[1] = test system: ciliary accumulation of Smo in Ptch−/− MEF; test: Immunostaining of Smo in primary cilia of Ptch−/− MEF; assay type: cell-based, mouse; conditions: 5 µM, 24 hours
Procedure: PTCH−/− MEF were seeded on pre-coated glass slides (1 hour coating with 0.1% Gelatin (G1393) and 0.003% Collagen (C8919) (Sigma-Aldrich) in PBS). 80% confluent cells were switched from 10% to 0.5% FBS in medium and cells were treated with DMSO or 5 µM MS-0022 for 24 hours in (n = 3) before subsequent immunofluorescent staining: Slides were fixed with 4% paraformaldehyde (Sigma-Aldrich), permeabilized for 10 min in 0.1% v/v Triton X-100 (Sigma-Aldrich) in PBS (PBT), and blocked with 10% w/v BSA (Saveen Werner) in PBT for 1 hour. Primary antibodies, mouse anti-acetylated tubulin (a-Tub) (Sigma-Aldrich (T7451), 1∶1000) goat anti-Smo (Santa Cruz Biotechnology (sc-6367), 1∶1000), and goat anti-GLI-1 (RnD systems (AF3455), 1∶500) were diluted in 0.5% w/v BSA in PBT and left on the slides over night at 4°C. Secondary antibodies donkey anti-goat IgG-Alexa 594 and donkey anti-mouse IgG-Alexa 488 (Invitrogen, both at 1∶500) were added in 0.5% w/v BSA in PBT for 1 hour. The slides were counterstained with DAPI (Roche, 1 mg/ml) in PBS. 3 random regions were imaged pr slide using a confocal LSM510 microscope (Carl Zeiss MicroImaging). The ratio of […] positive cilia was quantified manually or processed and analyzed using ImageJ to quantify the intensity of Smo and aTub for each cilium in the images (http://rsb.info.nih.goc/ij/). […]

[2] = test system: Gli1 mRNA expression in Ptch−/− MEF; test: Real time PCR of Gli1 mRNA in Ptch−/− MEF; assay type: cell-based, mouse; conditions: 5 µM, 48 hours
Procedure: (§1) Cells were lysed for RNA extraction after 48 or 72 hours of treatment. Total RNA from cultured cells or tumor tissue was isolated using the GeneElute miniprep kit (Sigma-Aldritch) following the manufacturer^'s instructions. cDNA was synthesized from the isolated mRNA using the Retroscript kit (Ambion), and real-time PCR was carried out using the SYBR Green PCR master mix (Stratagene) according to the manufacturer^'s instructions with an Mx3000P cycler (Stratagene). The relative concentrations of cDNA present in each sample were calculated by the MxPro software (Stratagene), normalized for GAPDH (mRNA from cells) or GUS (mRNA from tumors). For real time PCR primer sequences see Table 6. For the tumor tissue real time PCR, previously described human and mouse specific primers against GUSB, PTCH1 and GLI1were used.

SUIT-2 cells = test: In vitro antiproliferative assay (MTS), SUIT-2; assay type: cell-based, human; conditions: 4 day
Procedure: (§2) Cells were plated at a density of 3000 (THLE-2 and PC-3) and 1000 (PANC-1, SUIT-2 and FEMX) cells per well (on the basis of their growth rate) in 200 µl of medium in a 96-well plate. Medium was changed daily, and after four days, the assay was read using a MTS kit (Promega) according to the instructions of the manufacturer. Graphs display average of percent growth with standard deviation (n = 8).

[3] = test system: Gli1 or Gli2 (GliBS-Luc, NIH3T3 cells); test: GliBS-Luc reporter in NIH3T3 cells with forced Gli1 or Gli2 expression; assay type: cell-based; conditions: 10 µM, 48 hours
Procedure: (§3) Vectors were obtained from the following: GliBS-Luc reporter (gift from H. Sasaki), pBluescript (pBS) (Stratagene), FL-HA-GLI1 (Gli1) and Gli2-GFP (Gli2) (gifts from R. Toftgård), Super8XTOPFlash, and NFkB-luc (Panomics). 10 ng renilla luciferase (pRL-TK) (Promega) was used as a transfection control. HEK293 and NIH3T3 cells were seeded at 80,000 per well in 48-well plates on day 1, and were co-transfected on day 2 using a total of 0.4 µg plasmid per well mixed at 1∶3 in FUGENE6 according to manufacturer^'s instructions. On day 3, control medium and activating medium (50% L1 conditioned medium, 50% Shh conditioned medium or medium containing 10 ng/mL recombinant rcrTNF-α (R&D Systems)) +/− 10–20 µM MS-0022 were added, using DMSO as a control (the NFkB pathway inhibitor Bay11-7082 was used as a control in the NFkB assay). Samples were analyzed on day 4 or 5 using the Dual Luciferase assay kit according to manufacturer^'s instructions. Graphs display relative or fold reporter activity, and are calculated from a mean ratio of firefly reporter luminescence/pRL-TK luminescence with standard deviation error bars (n = 3). The experiments have been repeated with similar results.

PANC-1 xenograft = test: PANC-1 subcutaneous xenograft in CB17/SCID mice; assay type: in vivo, mouse
Procedure: as §1
(§4) For PANC-1 xenografts, 4–6 week old CB17/SCID mice were injected with 5×10^6 PANC-1 (n = 6 per group) cells in 200 µl PBS subcutaneously on day 1. IP treatment with 50 mg/kg MS-0022 began when median tumor size reached 25 mm^2 (day 27). MS-0022 was pulverized using a pestle, and was mixed into a stable suspension in water containing 1% Tween 80 (Sigma-Aldrich). Mice were treated with MS-0022 or solvent for a period of 30 days after initiation in a 5 day injection 2 day pause scheme, and tumor size was measured throughout using calipers (mm^2). After 30 days the mice were sacrificed and tumors dissected and weighed. The PANC-1 xenograft endpoint was taken two days after the last compound treatment.

[4] = test system: TNF-α induced NfkB signaling in NIH3T3 cells; test: NFkB luciferase reporter assay in NIH3T3; assay type: cell-based; conditions: NIH3T3, 10 µM and 20 µM, 24 hours
Procedure: as §3

[5] = Liver transaminases (AST/ALT) in xenografted mice; assay type: in vivo, mouse; conditions: 50 mg/kg, 30 days injection scheme (5 day injection, 2 day pause), PANC-1 xenograft mice
Procedure: as §4
Blood was collected from the hepatic vein of freshly sacrificed animals into heparinized capillary blood collection tubes (Sarstedt), which were immediately centrifuged and the serum was collected. AST and ALT were run on non-hemolyzed samples using AST and ALT kits (Randox) following the manufacturer^'s instructions.

SUIT-2 xenograft = test: SUIT-2 subcutaneous xenograft in CB17/SCID mice; assay type: in vivo
PANC-1 cells = test: In vitro antiproliferative assay (MTS), PANC-1; assay type: cell-based, human; conditions: 5 µM, 4 day
Procedure: as §2

[6] = QD, IP at 50 mg/kg, 5 day injection/2 day pause, end of treatment, vs control solvent
[7] = 50 mg/kg daily PO, 18 days, vs control group

Cc1cccn2cc(-c3ccc(NC(=O)c4ccccc4Br)cc3)nc12 [MS-0022, 2-bromo-N-(4-(8-methylimidazo[1,2-a]pyridin-2-yl)phenyl)benzamide]
Activity % (AMPK(r)): 98%
ciliary accumulation of Smo [1]: effectively blocked ciliary accumulation of Smo
Gli1 mRNA expression in Ptch−/− MEFs [2]: reduced Gli1 mRNA expression
growth (MTS), SUIT-2 (SUIT-2 cells): only MS-0022 reduced growth
inhibition of Gli1 or Gli2 when pathway further activated by Shh ([3]; 50% Shh conditioned medium): partial inhibition
Hh pathway inhibitory effect at the level of forced Gli1 or Gli2 expression ([3]; without Shh): not detected
reduction in tumor volume, PANC-1 xenograft (PANC-1 xenograft; [6]): 38%
reduction in tumor weight, PANC-1 xenograft (PANC-1 xenograft; [6]): 33%
human (tumor) or mouse (stroma) Ptch1 or Gli1 mRNA levels in PANC-1 tumors (PANC-1 xenograft; endpoint of the experiment, 50 mg/kg IP): no statistically relevant difference
TNF-α induced NfkB signaling [4]: nor did it block; also recorded: slight increase of NFkB signaling
AST/ALT levels [5]: greater than 1
animal weight, SUIT-2 xenograft mice (SUIT-2 xenograft; 50 mg/kg daily PO): unaffected
outwards signs of toxicity, SUIT-2 xenograft mice (SUIT-2 xenograft; 50 mg/kg daily PO): did not result in any outwards signs of toxicity
reduction in tumor volume, SUIT-2 xenograft (SUIT-2 xenograft; [7]): 27%
reduction in tumor weight, SUIT-2 xenograft (SUIT-2 xenograft; [7]): 36%
mouse (stromal) Gli1 mRNA in SUIT-2 tumors (SUIT-2 xenograft; after 7 days of treatment, 50 mg/kg PO, 50 mg/kg): reduced significantly
human or mouse Gli1, or Ptch1 mRNA levels in SUIT-2 tumors (SUIT-2 xenograft; endpoint of the experiment (18 days), 50 mg/kg PO): no statistical relevant reduction
growth (MTS), PANC-1 (PANC-1 cells): reduced growth
